{"source": "patent US4138590A", "about": "“Prostaglandin derivatives” (American Home Products Corporation, priority 1977, dated 1979)", "key": {"[1]": {"test_system": "Human blood platelets", "assay": "Blood Platelet Aggregation (ADP induced, modification of Born and Cross)", "assay_type": "cell-based", "conditions": "human PRP, ADP 2-4 μM", "protocol": "Reference: Modification of Born, G.V.R., and Cross, M. J., J. Physiol., 168, 178-195 (1963).\nTest Object: Human blood platelets.\nProcedure: Platelet aggregation is the initial step in thrombus formation and it is considered that compounds which prevent aggregation or reduce platelet adhesiveness may inhibit the initiation of the arteriosclerotic process. The effect of drugs on aggregation is measured in platelet rich plasma (PRP) containing adenosine diphosphate (ADP) which markedly increases aggregation in vitro and may be a physiological agent for doing so in vivo.\nHuman blood is collected from fasted normal blood donors in siliconized 50 ml. Vacutainers that contain 3.8% sodium citrate. Centrifugation at 500 g. for 3 minutes at 5° C. separates the red blood cells from the PRP. The supernatant PRP is pipetted off and the remainder is centrifuged at 1000 g. for 10 minutes at 25° C. to obtain platelet poor plasma for standarization of the automated Payton aggregometer. In the running of the platelet aggregation test a cell containing 1.0 ml. of PRP is stirred at 1,100 rpm and the test compound is added in 0.2 ml. of buffered saline to give an initial concentration of 5 × 10^-3 M, or 5 × 10^-4 M. After 3 minutes, a concentration of ADP predetermined to yield marked platelet aggregation (2 to 4 μM) is added in 0.1 ml. of buffered saline. The curve of light transmission at 610 mμ is followed for 6 minutes. Compounds found to be active at the initial concentration are run at lower concentrations.\nStandard Compound: 2-4 μM ADP-Reference Compound."}, "[2]": {"test_system": "bronchoconstricting effects of a standard dose of acetylcholine", "assay": "Evaluation of Bronchodilator Activity (aerosol inhalation, method of Rosenthale et al.)", "assay_type": "in vivo", "conditions": "guinea pig, acetylcholine i.v. dose producing ca. 30% bronchoconstriction", "excerpt": "In using the compounds of the invention to produce bronchodilating effects in warm-blooded animals, they may be administered in a variety of dosage forms: oral, injectable, and aerosol inhalation. Aerosol inhalation is a preferred method because of its rapid onset of action, great potency, and specificity of action. The particular dosage to obtain the bronchodilating effect will vary with the particular compound employed, the particular animal involved, and the degree of bronchodilation desired. In the guinea pig, by aerosol inhalation, the dose to produce bronchodilation is from about 0.15 micrograms to about 25 micrograms, and preferably from about 0.15 to about 15 micrograms. The bronchodilation produced upon aerosol inhalation can be observed by the method of Rosenthale et al., J. Pharmacol. Exp. Ther., 178, 541 (1971). Using this procedure the following results were obtained:\n*The dose (i.v.) of acetylcholine which produces a ca. 30%"}}}
{"smiles": "CCCCC[C@H](O)/C=C/[C@H]1C(=O)C=C(c2ccccc2)[C@@H]1C/C=C\\CCCC(=O)O", "note": "[7-{2β-[(3S)-3-Hydroxy-trans-1-Octenyl]-3-Oxo-5-Phenyl-4-Cyclopenten-1α-yl}-cis-5-Heptenoic Acid]", "values": [{"measurement": "inhibition at 18 µM", "setting": "[1]; concentration 1.8 × 10^-5 M", "value": 22, "unit": "%"}]}
{"smiles": "C#CC1=CC(=O)[C@H](/C=C/[C@@H](O)CCCCC)[C@H]1C/C=C\\CCCC(=O)O", "note": "[7-{5β-[(3S)-3-Hydroxy-trans-1-Octenyl]-2-Ethynyl-4-Oxo-2-Cyclopenten-1α-yl}-cis-5-Heptenoic Acid]", "values": [{"measurement": "inhibition at 22 µM", "setting": "[1]; concentration 2.2 × 10^-5 M", "value": 36, "unit": "%"}]}
{"smiles": "CCCCC[C@H](O)/C=C/[C@H]1C(=O)C=C(C)[C@@H]1C/C=C\\CCCC(=O)O", "note": "[7-{5β-[(3S)-3-Hydroxy-trans-1-Octenyl]-2-Methyl-4-Oxo-2-Cyclopenten-1α-yl}-cis-5-Heptenoic Acid]", "values": [{"measurement": "inhibition at 0.0057 µM", "setting": "[1]; concentration 5.7 × 10^-9 M", "value": 56, "unit": "%"}, {"measurement": "% Inhibition of the Bronchoconstricting effects of a standard dose of acetylcholine", "setting": "[2]; dose 1.5 μg", "value": 36, "unit": "%"}, {"measurement": "% Inhibition of the Bronchoconstricting effects of a standard dose of acetylcholine", "setting": "[2]; dose 15 μg", "value": 78, "unit": "%"}]}
